Experiments:
[1] = Chemical stability in pH 6.7 buffer; type: physicochemical
[2] = Toxicity in murine pre-clinical models; type: in vivo
[3] = molecular target: T1, human recombinant LTA4H enzyme (LTA4H AP activity) (Homo sapiens, UniProt P09960); conditions: Jiang et al. (2008); cited from earlier work
T1 sequence (P09960 1-611): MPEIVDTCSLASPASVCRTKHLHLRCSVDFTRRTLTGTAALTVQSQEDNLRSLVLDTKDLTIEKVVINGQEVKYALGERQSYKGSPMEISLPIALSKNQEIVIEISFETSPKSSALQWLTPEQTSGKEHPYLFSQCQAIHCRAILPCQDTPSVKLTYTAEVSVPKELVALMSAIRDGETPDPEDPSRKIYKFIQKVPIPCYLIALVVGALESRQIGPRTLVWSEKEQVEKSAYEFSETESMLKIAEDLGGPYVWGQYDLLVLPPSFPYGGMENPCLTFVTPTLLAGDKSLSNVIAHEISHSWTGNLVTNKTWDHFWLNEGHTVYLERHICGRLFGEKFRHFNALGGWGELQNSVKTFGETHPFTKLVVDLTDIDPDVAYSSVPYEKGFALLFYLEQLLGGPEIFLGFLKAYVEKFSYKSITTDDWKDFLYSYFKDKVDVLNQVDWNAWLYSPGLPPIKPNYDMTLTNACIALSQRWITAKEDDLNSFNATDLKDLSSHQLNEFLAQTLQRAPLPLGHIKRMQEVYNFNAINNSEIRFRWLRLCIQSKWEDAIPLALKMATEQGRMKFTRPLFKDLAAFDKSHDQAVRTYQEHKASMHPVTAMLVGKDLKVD

[4] = molecular target: T1, human recombinant LTA4H enzyme (LTA4H AP activity); test: In vitro aminopeptidase activity assay; type: biochemical; conditions: recombinant LTA4H + Ala-pNA; 500 μM, 10 μM, 5 μM, 100 nM; FIG. 2
Method: FIG. 2. In vitro aminopeptidase activity assay. The peptidase activity of compounds was determined following the method of Jiang and co-workers (2008). […] No Enzyme=buffer. Enzy=buffer+recombinant LTA4H. 500 μM, 10 μM, 5 μM, and 100 nM=buffer+recombinant LTA4H+Ala-pNA+MDM.
FIG. 7. Biological activities of 2-hydroxypropyl-β-cyclodextrin encapsulated 4-methoxydiphenylmethane (“CDX-MDM”). […] No Enzyme=buffer. 0 M=buffer+recombinant LTA4H+Ala-pNA+no MDM. 500 μM, 10 μM, 5 μM, and 100 nM=buffer+recombinant LTA4H+Ala-pNA+MDM (500 μM, 10 μM, 5 μM, or100 nM).
(§1) In order to establish the biological roles of LTA4H AP activity in the pathogenesis of pulmonary emphysema, wild type mice were exposed to porcine elastase via the intra-nasal route and then treated with one LTA4H AP activity augmentor (compound 66, MDM), a LTA4H AP activity inhibitor (compound 67, PDM), or vehicle (peanut oil). Synthesis of MDM was accomplished by treatment of 4-benzyl phenol in dimethylformamide solvent with potassium hydroxide followed by methyl iodide (FIG. 1). Synthesis of compound PDM was accomplished by treatment of 4-benzyl phenol in dimethylformamide solvent with potassium hydroxide followed by butyl iodide (FIG. 1). The peptidase activity of the compound was determined following the method of Jiang and co-workers (2008).

[5] = system: elastase induced murine pulmonary emphysema; test: Elastase-induced murine pulmonary emphysema model; type: in vivo, mice; conditions: for pre mortem lung compliance (Flexivent): 4 weeks after intra-nasal elastase, drug intra-peritoneal in peanut oil, FIG. 3; for severity of pulmonary emphysema: vs vehicle treated control animals
Method: To investigate the role that LTA4H plays in the pathogenesis of human diseases, murine models of elastase-induced pulmonary emphysema (Example 1) and LPS-induced acute lung injury (Example 3) were tested. In order to establish the elastase-dose dependent severity of murine pulmonary emphysema, increasing doses of porcine elastase were instilled into murine lungs of 129J background via the intra-nasal route. Four weeks after elastase was instilled, mouse lungs were harvested en block, inflated with 1% low melting point agarose gel (LMPA) at 25 cm melted 1% LMPA pressure. Lungs were then fixed overnight in formaldehyde. […] This confirmed that intra-nasal elastase administration was able to induce pulmonary emphysema in a dose-dependent manner.
as §1
Elastase (0.75 μg elastase per gm mouse weight) was instilled via the intra-nasal route. After 4 weeks, mice were sedated, intubated, and ventilated with Sireq Flexivent to measure lung compliance pre mortem. It was understood that lungs with more severe emphysema would have lost more elasticity, and thus, their lung compliance would be greater when measured by a small animal ventilator (FIG. 3). Once lung compliance was measured, mice were euthanized. Lungs were harvested en block without damaging outer coverings. Once harvested, lungs were inflated with 1% low melting point agarose gel (LMPA) at 25 cm melted 1% LMPA gel pressure. Once inflated, the total lung volumes were measured by volume displacement technique (FIG. 4). It was understood that lungs with more severe emphysema would have lost more elasticity, and thus their lung volume would be greater after being inflated with a uniform pressure. After the total lung volume measurement, lungs were fixed in para-formaldehyde overnight. On the following day, whole lungs were photographed (FIG. 5). Lungs with more severe emphysema would have lost more elasticity, and thus their lungs would be larger after being fixed with para-formaldehyde. The lungs were then paraffin embedded, paraffin sections were H&E stained (FIG. 6A), and morphometry was performed by using NIH ImagePro software and custom written macro string (Shim et al., 2006; Shim et al., 2010; Zheng et al., 2000; Zu et al., 1999). Alveolar intercepts were calculated and averaged from at least 8 animals in each group to yield chord length of each group (FIG. 6B). It was understood that alveoli from lungs with more severe emphysema would be larger after losing more elasticity and thus their chord length of the alveoli would be longer.

Bioavailability in mice = type: in vivo
[6] = Encapsulation and equilibrium solubility test (HPLC); type: physicochemical
Method: To 5.3 mg (1.0 equivalent) of MDM was added 160.0 mg (4.0 equivalents) of CDX followed by 4.8 mL of water. […] The homogeneity of the solution was analyzed by HPLC.
Solubility measurement. […] Method: isocratic 80:20 acetonitrile-water at 1.0 mL/min, injection volume=5 μL, monitoring at λ=250 nm.
The method was carried out above with phosphate buffer saline (PBS, Ampresco, 20× concentrate, pH7.5; 500 μL of PBS concentrate was added to 9500 μL of water). To 6.0 mg (1.0 equivalents) of MDM was added 180.0 mg (4.0 equivalents) of CDX followed by 5.8 mL of water. […] The homogeneity of the solution was analyzed by HPLC.
The method was carried out as above. To 2.4 mg (1.0 equivalents) of MDM was added 0.035 g (2.0 equivalents) of CDX followed by 2.4 mL of PBS solution. […] The homogeneity of the solution was analyzed by HPLC.

SMILES | chemical stability in pH 6.7 buffer [1] | mortality [2] | LTA4H AP activity in vitro [3] | LTA4H AP activity [4] | pre mortem lung compliance (Flexivent) [5] | post mortem total lung volume (volume displacement) ([5]; vs PDM or vehicle control, FIG. 4) | gross size of inflated whole lungs ([5]; vs PDM or vehicle control, FIG. 5) | lung histology chord length ([5]; vs drug 67 or vehicle (peanut oil), FIG. 6) | severity of pulmonary emphysema [5] | bioavailability (Bioavailability in mice; encapsulated formulation with 2-hydroxypropyl-β-cyclodextrin, intra-nasal administration to mice) | bioavailability (Bioavailability in mice; intra-peritoneal injection of mice, MDM combined with peanut oil) | concentration in solution by standard curve ([6]; 1:2 MDM:CDX in PBS, calculated 5.04 mM) [µM] | fraction of the MDM in the homogeneous solution at equilibrium ([6]; 1:2 ratio of MDM:CDX in PBS) [%] | solubility with 2 equivalents of CDX ([6]; PBS solution) [µg/mL]
COc1ccc(Oc2ccccc2)cc1 [1-methoxy-4-phenoxybenzene] | chemical instability | greater than 85% | upregulates |  |  |  |  |  |  |  |  |  |  | 
COc1ccc(Cc2ccccc2)cc1 [MDM, 4-methoxydiphenylmethane] | stable |  |  | augment | significantly lower lung compliance | much less emphysematous | much smaller | shorter | significantly less severe | bioavailable | bioavailable | 2950 | 59 | 590
CCCCCOc1ccc(Cc2ccccc2)cc1 [PDM, 4-pentoxydiphenylmethane] |  |  |  | decrease | high lung compliance similar to lungs treated with vehicle |  |  |  | deleterious outcomes |  |  |  |  | 

From US9617197B2, “Compositions and methods for treating inflammatory diseases” (University of Virginia Patent Foundation, priority 2010, dated 2017)
